Paper PMC4583814 (Nature neuroscience, 2015)

Key:
Assay in all cases: CRE-luciferase
Type in all cases: cell-based
Olfr57 = target: T1, Olfr57 (Mus musculus, UniProt Q8VGU7); conditions: Hana3A cells, 4 h, 37°C; agonist
T1 sequence (Q8VGU7 1-319): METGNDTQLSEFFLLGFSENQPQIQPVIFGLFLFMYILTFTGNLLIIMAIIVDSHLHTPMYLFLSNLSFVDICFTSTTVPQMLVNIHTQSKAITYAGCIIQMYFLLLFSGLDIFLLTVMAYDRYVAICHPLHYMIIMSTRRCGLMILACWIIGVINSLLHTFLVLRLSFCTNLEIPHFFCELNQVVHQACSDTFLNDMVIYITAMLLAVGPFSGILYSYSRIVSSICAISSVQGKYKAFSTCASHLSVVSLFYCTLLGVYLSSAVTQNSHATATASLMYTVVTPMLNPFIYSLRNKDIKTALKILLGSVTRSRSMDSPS

Olfr20 = target: T2, Olfr20 (Mus musculus, UniProt Q7TRX9); conditions: Hana3A cells, 4 h, 37°C; agonist
T2 sequence (Q7TRX9 1-314): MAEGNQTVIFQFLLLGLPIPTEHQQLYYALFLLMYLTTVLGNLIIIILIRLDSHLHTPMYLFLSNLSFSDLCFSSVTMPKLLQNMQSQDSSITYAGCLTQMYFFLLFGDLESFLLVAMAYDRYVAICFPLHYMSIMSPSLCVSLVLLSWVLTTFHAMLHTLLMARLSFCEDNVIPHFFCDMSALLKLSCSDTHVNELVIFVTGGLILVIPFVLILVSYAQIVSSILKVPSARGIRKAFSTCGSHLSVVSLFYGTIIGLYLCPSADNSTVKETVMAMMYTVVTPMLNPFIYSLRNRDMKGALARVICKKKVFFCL

Olfr376 = target: T3, Olfr376 (Mus musculus, UniProt Q8VGI2); conditions: Hana3A cells, 4 h, 37°C; agonist
T3 sequence (Q8VGI2 1-317): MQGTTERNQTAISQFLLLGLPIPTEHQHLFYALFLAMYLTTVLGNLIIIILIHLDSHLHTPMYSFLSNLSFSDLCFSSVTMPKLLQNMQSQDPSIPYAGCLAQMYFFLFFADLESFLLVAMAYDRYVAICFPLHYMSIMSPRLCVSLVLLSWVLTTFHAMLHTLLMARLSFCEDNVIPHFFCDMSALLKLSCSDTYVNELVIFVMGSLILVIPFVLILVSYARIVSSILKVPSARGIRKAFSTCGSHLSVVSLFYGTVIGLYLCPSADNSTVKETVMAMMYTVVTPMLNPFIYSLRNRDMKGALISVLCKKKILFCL

Olfr491 = target: T4, Olfr491 (Mus musculus, UniProt Q8VG06); conditions: Hana3A cells, 4 h, 37°C; agonist
T4 sequence (Q8VG06 1-310): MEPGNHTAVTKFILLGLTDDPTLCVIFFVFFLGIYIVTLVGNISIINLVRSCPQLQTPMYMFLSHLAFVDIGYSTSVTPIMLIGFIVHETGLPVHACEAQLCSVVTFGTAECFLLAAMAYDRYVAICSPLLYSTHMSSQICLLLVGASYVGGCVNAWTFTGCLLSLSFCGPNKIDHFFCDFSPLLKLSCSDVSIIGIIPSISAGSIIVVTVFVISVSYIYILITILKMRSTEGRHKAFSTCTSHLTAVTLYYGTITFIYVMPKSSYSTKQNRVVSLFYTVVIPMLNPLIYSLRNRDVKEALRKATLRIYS

Olfr19 = target: T5, Olfr19 (Mus musculus, UniProt Q9JHB2); conditions: Hana3A cells, 10^–9 – 10^–3 M, 4 h, 37°C; agonist
T5 sequence (Q9JHB2 1-309): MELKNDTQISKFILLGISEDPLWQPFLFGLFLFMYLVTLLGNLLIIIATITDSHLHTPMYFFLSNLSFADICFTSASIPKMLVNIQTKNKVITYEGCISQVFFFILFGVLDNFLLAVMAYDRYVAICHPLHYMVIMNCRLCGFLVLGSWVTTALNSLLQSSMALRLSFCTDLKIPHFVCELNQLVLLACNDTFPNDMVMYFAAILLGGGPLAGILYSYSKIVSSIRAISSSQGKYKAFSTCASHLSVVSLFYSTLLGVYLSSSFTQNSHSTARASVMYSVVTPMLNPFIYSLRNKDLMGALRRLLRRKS

| SMILES | CRE-luciferase (Dual-Glo) reporter (Olfr57) | CRE-luciferase (Dual-Glo) reporter (Olfr20) | CRE-luciferase (Dual-Glo) reporter (Olfr376) | CRE-luciferase (Dual-Glo) reporter (Olfr491) | EC50 (Olfr19) |
| --- | --- | --- | --- | --- | --- |
| CC1=NC(C)SC1C (centres unmarked) [2,5–dihydro–2,4,5–trimethylthiazoline] | Five of these TMT ORs (Olfr20, Olfr30, Olfr57, Olfr376, Olfr491) | Five of these TMT ORs (Olfr20, Olfr30, Olfr57, Olfr376, Olfr491) | Five of these TMT ORs (Olfr20, Olfr30, Olfr57, Olfr376, Olfr491) | Five of these TMT ORs (Olfr20, Olfr30, Olfr57, Olfr376, Olfr491) |  |
| CC(=O)c1ccccc1 [acetophenone] |  |  |  |  | a newly identified acetophenone OR, Olfr19 |
